We go through 1 molecule from patent US8962621B2 (Shanghai Institute of Pharmaceutical Industry, priority 2010, dated 2015).

As usually defined, the inhibition is the relative decrease from the control value, in per cent. As a reminder, the LD50 is the dose at which mortality reaches 50%. Lower therefore signals greater toxicity.

The target of one series is DA Transporter (hDAT) (Homo sapiens, UniProt Q01959). Description: Inhibition of [3H]-DA reuptake in HEK 293 cells stably expressing hDAT. Particulars: HEK293, read-out: DA Reuptake Inhibition.
Chain of DA Transporter (hDAT) (Q01959 whole entry): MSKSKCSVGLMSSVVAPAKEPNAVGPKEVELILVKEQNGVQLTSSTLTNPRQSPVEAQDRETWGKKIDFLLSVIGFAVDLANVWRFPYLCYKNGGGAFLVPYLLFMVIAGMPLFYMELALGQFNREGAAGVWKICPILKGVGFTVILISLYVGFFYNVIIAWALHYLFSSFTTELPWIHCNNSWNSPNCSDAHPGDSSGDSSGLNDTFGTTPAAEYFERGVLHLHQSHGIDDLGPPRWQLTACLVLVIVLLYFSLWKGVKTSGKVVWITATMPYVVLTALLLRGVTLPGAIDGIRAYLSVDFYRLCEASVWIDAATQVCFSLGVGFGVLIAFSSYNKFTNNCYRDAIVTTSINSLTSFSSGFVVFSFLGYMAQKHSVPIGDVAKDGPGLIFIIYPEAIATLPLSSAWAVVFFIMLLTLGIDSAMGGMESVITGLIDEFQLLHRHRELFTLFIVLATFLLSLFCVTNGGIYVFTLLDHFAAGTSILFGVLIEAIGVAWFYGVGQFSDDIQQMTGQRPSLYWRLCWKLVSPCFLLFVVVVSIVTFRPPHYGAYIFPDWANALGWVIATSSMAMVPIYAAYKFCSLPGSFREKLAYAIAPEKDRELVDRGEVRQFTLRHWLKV
For the next series, the system named is male ICR mice. Description: Mice tail suspension test. The series is classed as in vivo. The procedure:
Through intragastric administration, 10 mL·kg^−1 of each sample (physiological saline for the blank control group) is administrated. After 1 h of the treatment, the mouse is held with a medical tape at a position around 2 cm from the tip of its tail and hung upside-down in the suspension cage with its head 5 cm away from the bottom of the cage. The observation starts right after the mouse is suspended for 2 min and continues for 4 min. The time during which the mouse is immobile (no struggling or only tiny movements of its body/limbs) in this 4 min is accumulated (IT, immobility time). The percentage of the improvement is calculated according to the equation: Improvement %=[IT (blank control group)−IT (compound treatment group)]/IT (blank control group)×100%

A further series deals with male Kunming mice. The series can be described thus: Mice forced swimming test. The series is classed as in vivo. On the procedure: Through intragastric administration, 10 mL·kg^−1 of each sample (physiological saline for the blank control group) is administrated. The mice are pre-screened for swimming one day before the actual test. The mouse is placed into water (25° C., 10 cm deep) in a glass tank (height 20 cm, diameter 14 cm) and forced to swim for 6 min. Those who stop swimming at around 70-160 s are chosen for the actual test which starts 24 h later. After 1 h of the administration, the forced swimming test is performed by placing the animal into the above-mentioned environment to swim for 6 min. The accumulative immobility time for the last 4 min is recorded. Data is statistically analyzed with t-test.

The next series has as its target 5-HT Transporter (hSERT) (Homo sapiens, UniProt P31645). Description: Inhibition of [3H]-5-HT reuptake in HEK 293 cells stably expressing hSERT.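 Further: compound preincubated 10 min at 30 °C, then 10 min uptake, filter-bound radioactivity counted by scintillation, inhibition relative to total (blank) minus non-specific (positive control) uptake.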
The subject of series [1] is Histidine auxotroph mutant of mouse salmonella TA97, TA98, TA100 and TA102. The series is classed as cell-based. From the text:
5. […] 6. Bacterial Reverse Mutation Test of Compounds VI-1 VI-2 and VI16 • Strains: Histidine auxotroph mutant of mouse salmonella TA97, TA98, TA100 and TA102. • Test method: The one reported in Maron DM et al: (1983) Mutay Res. 113, 173-216 is used. • Results: The test consists of two parts, i.e., −S9 and +S9. […] No bacteriostatic actions to all the strains are observed at all the other dosages, and the growth background is good.

Series [2] is described as follows: Acute toxicity experiment (single oral gavage). Particulars: mouse, in vivo, po.
In another series the target is NA Transporter (hNAT) (Homo sapiens, UniProt P23975). The series can be described thus: Inhibition of [3H]-NA reuptake in HEK 293 cells stably expressing hNAT. Particulars: HEK293, read-out: NA Reuptake Inhibition.
Chain of NA Transporter (hNAT) (P23975 whole entry): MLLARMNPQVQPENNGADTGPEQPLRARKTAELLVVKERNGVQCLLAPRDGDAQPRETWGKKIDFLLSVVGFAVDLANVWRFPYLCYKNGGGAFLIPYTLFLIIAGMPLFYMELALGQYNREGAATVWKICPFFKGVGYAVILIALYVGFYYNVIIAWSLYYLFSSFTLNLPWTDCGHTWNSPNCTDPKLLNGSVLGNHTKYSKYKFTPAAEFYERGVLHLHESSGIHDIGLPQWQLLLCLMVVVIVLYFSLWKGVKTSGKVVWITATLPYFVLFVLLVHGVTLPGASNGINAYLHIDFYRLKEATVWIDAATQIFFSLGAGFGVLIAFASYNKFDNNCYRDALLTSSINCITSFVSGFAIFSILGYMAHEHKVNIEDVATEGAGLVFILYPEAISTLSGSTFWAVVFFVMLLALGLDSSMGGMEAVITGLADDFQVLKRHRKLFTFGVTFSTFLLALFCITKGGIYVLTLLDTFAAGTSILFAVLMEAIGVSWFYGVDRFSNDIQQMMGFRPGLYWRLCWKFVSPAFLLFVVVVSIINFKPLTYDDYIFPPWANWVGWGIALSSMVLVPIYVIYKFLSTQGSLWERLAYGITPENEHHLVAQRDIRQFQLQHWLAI

Chain of 5-HT Transporter (hSERT) (P31645 whole entry): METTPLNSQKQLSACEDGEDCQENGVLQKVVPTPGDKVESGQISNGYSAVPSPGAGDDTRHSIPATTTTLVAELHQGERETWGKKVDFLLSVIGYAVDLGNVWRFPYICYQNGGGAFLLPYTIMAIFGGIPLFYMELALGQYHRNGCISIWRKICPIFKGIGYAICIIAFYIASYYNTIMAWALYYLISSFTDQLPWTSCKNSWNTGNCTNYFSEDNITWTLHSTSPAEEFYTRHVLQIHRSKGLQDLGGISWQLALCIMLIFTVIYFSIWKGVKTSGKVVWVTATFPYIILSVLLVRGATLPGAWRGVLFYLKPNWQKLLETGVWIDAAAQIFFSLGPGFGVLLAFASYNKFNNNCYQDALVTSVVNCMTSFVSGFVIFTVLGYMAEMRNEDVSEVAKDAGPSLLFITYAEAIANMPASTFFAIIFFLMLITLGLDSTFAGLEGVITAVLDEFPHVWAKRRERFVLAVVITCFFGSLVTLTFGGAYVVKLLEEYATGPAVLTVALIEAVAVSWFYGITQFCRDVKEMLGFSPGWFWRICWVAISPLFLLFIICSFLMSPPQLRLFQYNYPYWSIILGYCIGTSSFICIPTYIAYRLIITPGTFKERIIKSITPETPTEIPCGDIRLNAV

Consider `CCN(CC)CCC(c1ccc(Cl)c(Cl)c1)N1CCCC1` (stereo not drawn) [VI-1, N,N-diethyl-3-(3,4-dichlorophenyl)-3-(pyrrolidin-1-yl)-propylamine], for which the inhibition at 10 µM at DA Transporter (hDAT) came out at 101%; at 5-HT Transporter (hSERT) (HEK293, read-out: 5-HT Reuptake Inhibition), 98.2%; at NA Transporter (hNAT), 101%. In addition, the “IT (sec), immobility time” value in the series with male ICR mice (20.0 mg/kg single intragastric administration, 1 h before test, 4 min observation, n=12) came to 48.17 ± 38.29 s; with male Kunming mice (20.0 mg/kg single intragastric administration, 1 h before test, last 4 min of 6 min, n=12), 57.1 ± 37.8 s. The “Improvement (%)” value with male ICR mice (20.0 mg/kg single oral administration, versus blank control IT) was 51.44%. In the series with male ICR mice (20 mg/kg, efficacy similar to Venlafaxine), the “effect on immobility time in the tail suspension test (in words)” value is listed as “significant reduction in the immobility time”. Also, in the series with male Kunming mice (20 mg/kg), the “effect in the forced swimming test (in words)” value is given as “significant reduction in the immobility time”. Moreover, at 5-HT Transporter (hSERT), the “inhibition effect towards the reuptake of 5-HT (in words)” value is “relatively strong inhibition effect”. In series [1] (5000 μg per dish, TA98 without S9 and TA97 with S9, none at other dosages), the bacteriostatic action result was “bacteriostatic action is showed”. The Ames test result in series [1] (TA97, TA98, TA100, TA102, with or without S9, all test dosages) is given as “negative”. Further, the LD50 in series [2] was 1050 mg/kg.
